Laboratory results reported in patent publication US20250213558A1, “T-TYPE CALCIUM CHANNEL MODULATORS COMPRISING A PIPERAZINE OR 1,4-DIAZEPANE CORE AND METHODS OF USE THEREOF” (Praxis Precision Medicines, Inc., priority 2022, published 2025).
Like-named read-outs stand apart in the source and are kept apart here.

Biological target: T1, Human Cav3.1 calcium channel (Homo sapiens, UniProt O43497)
T1 construct: expressed in transfected cells; host or cells: HEK-293 natClytin/TASK1+Cav3.1 cell line
Experiment: Human Cav3.1 calcium channel patch clamp assay (SyncroPatch 384PE; single point and IC50, voltage dependent block)
Type: cell-based
Conditions: for % Inhibition (Single Point Data): Testing Conc 1.25, patch clamp
Description: Certain compounds (as indicated) were tested for Human Cav3.1 calcium channel activity via a patch clamp assay as disclosed herein.
Pulse generation and data collection were performed with PatchController384 V1.3.0 and DataController384 V1.2.1 (Nanion Technologies). Offline analysis was performed using Excel and Graphpad Prism (V 8.4.2) with complete data files uploaded to Dotmatics. The access resistance and apparent membrane capacitance were estimated using built-in protocols. Current was recorded in whole cell configuration from a population of cells. The cells were lifted, triturated, and resuspended at 800,000 cells/ml. The cells were allowed to recover in the cell hotel prior to experimentation. Currents were recorded at room temperature. The external solution contained the following (in mM): NaCl 80, NMDG 60, KCl 4, MgCl2 1, CaCl2 6, glucose 5 and HEPES 10 (pH=7.4, Osmolarity˜300 mOsm). The extracellular solution was used as the wash, reference and compound delivery solution.
The compound plate was created at 2× concentrated in the extracellular solution. The compound was diluted to 1:2 when added to the recording well. The amount of DMSO in the extracellular solution was held constant at the level used for the highest tested concentration. For the voltage clamp experiments on Cav3.1, data were sampled at 10 KHz. After establishment of the seal and the passage in the whole cell configuration, the cells were held at −120 mV. Cav3.1 current was evoked using a 100 ms step to −20 mV (to measure resting state block), followed by a 1600 ms step to −65 mV and a second 100 ms step to −20 mV (to measure voltage dependent block). The voltage protocol was applied every 15 seconds in the absence and in the presence of the compounds under investigation. […] Current amplitude (pA) was measured in the peak 1 and 2. The average of last 3 sweeps of each liquid period (vehicle, compound under investigation, full block) was calculated. Nickel-sensitive current was used to calculate the % of inhibition in the presence of the compound under investigation.

[1] = HEK-293 natClytin/TASK1+Cav3.1 cell line
[2] = voltage dependent block (VDB), HEK-293 natClytin/TASK1+Cav3.1 cell line, read-out: Cav3.1 IC50

T1 sequence (O43497 whole entry): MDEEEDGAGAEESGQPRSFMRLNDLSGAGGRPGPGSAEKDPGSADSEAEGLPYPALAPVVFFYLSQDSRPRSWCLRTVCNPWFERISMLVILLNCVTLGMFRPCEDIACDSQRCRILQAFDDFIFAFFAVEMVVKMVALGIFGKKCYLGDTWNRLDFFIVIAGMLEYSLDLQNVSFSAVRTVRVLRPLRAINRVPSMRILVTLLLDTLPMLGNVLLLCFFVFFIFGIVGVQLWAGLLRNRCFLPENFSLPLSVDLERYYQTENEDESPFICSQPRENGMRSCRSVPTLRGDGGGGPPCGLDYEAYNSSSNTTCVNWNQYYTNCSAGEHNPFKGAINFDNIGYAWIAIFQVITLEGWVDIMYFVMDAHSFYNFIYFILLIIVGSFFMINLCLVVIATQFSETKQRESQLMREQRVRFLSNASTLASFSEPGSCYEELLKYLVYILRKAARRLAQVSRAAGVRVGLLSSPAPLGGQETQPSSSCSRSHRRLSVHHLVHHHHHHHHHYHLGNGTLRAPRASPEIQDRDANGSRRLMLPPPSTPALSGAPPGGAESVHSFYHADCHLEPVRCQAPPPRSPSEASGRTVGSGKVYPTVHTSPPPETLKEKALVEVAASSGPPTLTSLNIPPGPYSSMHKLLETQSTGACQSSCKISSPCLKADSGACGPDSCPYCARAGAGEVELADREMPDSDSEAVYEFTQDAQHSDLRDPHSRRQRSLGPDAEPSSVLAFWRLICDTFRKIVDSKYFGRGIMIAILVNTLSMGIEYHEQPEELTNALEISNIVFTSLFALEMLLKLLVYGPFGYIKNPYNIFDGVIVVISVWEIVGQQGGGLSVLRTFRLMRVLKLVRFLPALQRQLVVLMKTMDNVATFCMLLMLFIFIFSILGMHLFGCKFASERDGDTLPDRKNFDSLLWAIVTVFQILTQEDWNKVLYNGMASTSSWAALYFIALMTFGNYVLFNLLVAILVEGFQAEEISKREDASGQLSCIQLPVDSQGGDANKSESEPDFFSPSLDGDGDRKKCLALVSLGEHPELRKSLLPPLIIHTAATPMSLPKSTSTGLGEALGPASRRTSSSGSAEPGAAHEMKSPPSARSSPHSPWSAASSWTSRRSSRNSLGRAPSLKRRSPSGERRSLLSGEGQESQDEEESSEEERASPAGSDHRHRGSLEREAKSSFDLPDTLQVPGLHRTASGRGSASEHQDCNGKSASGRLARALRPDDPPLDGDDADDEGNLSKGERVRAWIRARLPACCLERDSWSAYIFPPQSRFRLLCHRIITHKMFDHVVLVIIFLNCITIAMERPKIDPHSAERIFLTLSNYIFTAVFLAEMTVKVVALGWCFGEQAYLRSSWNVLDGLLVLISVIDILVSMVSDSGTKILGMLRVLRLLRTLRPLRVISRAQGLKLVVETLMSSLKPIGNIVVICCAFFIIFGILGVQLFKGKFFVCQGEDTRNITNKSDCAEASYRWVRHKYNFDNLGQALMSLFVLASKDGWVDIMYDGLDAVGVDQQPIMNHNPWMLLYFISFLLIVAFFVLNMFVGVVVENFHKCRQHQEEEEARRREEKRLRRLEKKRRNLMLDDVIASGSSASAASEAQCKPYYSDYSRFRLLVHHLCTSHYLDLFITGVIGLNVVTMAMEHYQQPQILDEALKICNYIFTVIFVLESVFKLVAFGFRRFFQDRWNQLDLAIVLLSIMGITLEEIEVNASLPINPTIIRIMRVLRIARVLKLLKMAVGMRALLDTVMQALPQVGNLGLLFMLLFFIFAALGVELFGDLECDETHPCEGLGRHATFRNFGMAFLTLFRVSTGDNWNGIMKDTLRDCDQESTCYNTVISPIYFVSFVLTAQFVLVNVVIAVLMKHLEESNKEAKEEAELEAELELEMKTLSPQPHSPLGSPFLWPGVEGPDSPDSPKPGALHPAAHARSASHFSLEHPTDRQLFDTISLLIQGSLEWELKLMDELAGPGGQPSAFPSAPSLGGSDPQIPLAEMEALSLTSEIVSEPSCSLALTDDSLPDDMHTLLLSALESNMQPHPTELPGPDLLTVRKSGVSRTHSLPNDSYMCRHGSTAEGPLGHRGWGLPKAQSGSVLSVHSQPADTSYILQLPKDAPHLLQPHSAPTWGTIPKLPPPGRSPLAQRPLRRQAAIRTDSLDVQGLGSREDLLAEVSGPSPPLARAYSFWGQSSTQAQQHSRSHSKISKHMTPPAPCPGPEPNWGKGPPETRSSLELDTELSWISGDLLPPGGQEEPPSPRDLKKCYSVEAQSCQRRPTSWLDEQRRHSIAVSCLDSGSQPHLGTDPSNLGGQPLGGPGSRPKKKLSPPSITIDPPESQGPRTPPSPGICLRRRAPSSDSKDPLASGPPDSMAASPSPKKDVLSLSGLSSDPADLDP

Compound: COc1cccc(NC(=O)CN2CC3CC(C2)N3CC(=O)NC(C)(C)C)c1 [Compound 208]
- % Inhibition (Single Point Data) [1]: 51.139%
- IC50 [2]: 1010 nM

Compound: CC(C)(C)NC(=O)CN1C2CC1CN(CC(=O)NC1CCCC(OC(F)F)C1)C2 (stereo not drawn) [Compound 321]
- % Inhibition (Single Point Data) [1]: 66.321%
- IC50 [2]: 819 nM

Compound: Fc1cc(Cl)c2nc(CN3CC4CC(C3)N4CCC3CCC(F)(F)CC3)[nH]c2c1 [Compound 104]
- IC50: < 78.2 nM
- % Inhibition (Single Point Data) [1]: 99.877%

Compound: CC1(C)CCN1C(=O)CN1C[C@@H]2C[C@H]1CN2CC(=O)NC12CC3CC(CC(C3)C1)C2 [Compound 328]
- % Inhibition (Single Point Data) [1]: 48.833%

Compound: CC(C)(NC(=O)CN1C2CC1CN(CC(=O)Nc1cc(F)cc(OC(F)F)c1)C2)C(F)(F)F [Compound 224]
- % Inhibition (Single Point Data) [1]: 83.389%
- IC50 [2]: 159 nM

Compound: CC(C)(C)NC(=O)CN1C[C@@H]2CC[C@H]1CN2CC(=O)Nc1ccc(F)c(OC(F)F)c1 [Compound 267]
- % Inhibition (Single Point Data) [1]: 73.222%
- IC50 [2]: 455 nM

Compound: CC1(C)CC(CN2C3CC2CN(Cc2nc4c(Cl)cc(F)cc4[nH]2)C3)CCO1 (stereo not drawn) [Compound 112]
- % Inhibition (Single Point Data) [1]: 82.988%

Compound: CC1(CN2C3CC2CN(Cc2nc4c(Cl)cc(F)cc4[nH]2)C3)CCOCC1 [Compound 106]
- % Inhibition (Single Point Data) [1]: 52.218%
- IC50 [2]: 1110 nM

Compound: CC(C)(C)NC(=O)CN1C[C@@H]2C[C@H]1CN2CC(=O)NC12CCC(CC1)C2 [Compound 288]
- % Inhibition (Single Point Data) [1]: 23.299%
- IC50 [2]: 1710 nM

Compound: CC(C)(CCN1C2CC1CN(Cc1nc3c(Cl)cc(F)cc3[nH]1)C2)C(F)(F)F [Compound 172]
- % Inhibition (Single Point Data) [1]: 94.964%

Compound: CC(C)(C)NC(=O)CN1C[C@H]2CC[C@@H]1CN2CC(=O)Nc1ccc(F)c(OC(F)F)c1 [Compound 266]
- % Inhibition (Single Point Data) [1]: 61.569%
- IC50 [2]: 803 nM

Compound: O=C(CN1CC2CC(C1)N2CCNC(=O)C1(C(F)(F)F)CCC1)Nc1cc(F)cc(Cl)c1 [Compound 229]
- % Inhibition (Single Point Data) [1]: 89.382%

Compound: O=C(CN1C2CC1CN(Cc1nc3c(Cl)ccc(F)c3[nH]1)C2)NC1(C(F)(F)F)COC1 [Compound 180]
- % Inhibition (Single Point Data) [1]: 82.621%

Compound: C[C@H](NC(=O)CN1C[C@@H]2C[C@H]1CN2CC(=O)NC(C)(C)C)C12CC3CC(CC(C3)C1)C2 [Compound 326]
- % Inhibition (Single Point Data) [1]: 66.987%
- IC50 [2]: 734 nM

Compound: CC(C)(C)NC(=O)CN1C[C@@H]2C[C@H]1CN2CC(=O)Nc1cc(Cl)cc(Cl)c1 [Compound 272]
- % Inhibition (Single Point Data) [1]: 98.544%
- IC50 [2]: 71.2 nM

Compound: CN(C(=O)CN1C2CC1CN(Cc1nc3c(Cl)cc(F)cc3[nH]1)C2)C(C)(C)CO [Compound 128]
- % Inhibition (Single Point Data) [1]: 18.511%

Compound: O=C(CN1C2CCC1CN(Cc1nc3c(Cl)cc(F)cc3[nH]1)C2)N1CCOCC1 [Compound 83]
- % Inhibition (Single Point Data) [1]: 84.836%
- IC50 [2]: 441 nM

Compound: CC(C)(C)NC(=O)CN1C[C@@H]2C[C@H]1CN2CC(=O)NC1CCCCC1 [Compound 289]
- % Inhibition (Single Point Data) [1]: 36.292%
- IC50 [2]: 5020 nM

Compound: CC(C)(C)NC(=O)CN1C2CC1CN(CC(=O)NC13CC4CC(CC(C4)C1)C3)C2 [Compound 258]
- % Inhibition (Single Point Data) [1]: 91.927%
- IC50 [2]: 410 nM

Compound: Cc1cc(NC(=O)CN2C[C@@H]3C[C@H]2CN3CC(=O)NC2(C(F)(F)F)CC2)ccc1F [Compound 340]
- % Inhibition (Single Point Data) [1]: 50%

Compound: Fc1cc(Cl)c2nc(CN3CC4CC(C3)N4CC3CCC(F)(F)CC3)[nH]c2c1 [Compound 98]
- % Inhibition (Single Point Data) [1]: 92.211%
- IC50 [2]: 231 nM

Compound: COc1cc(NC(=O)CN2C[C@@H]3C[C@H]2CN3CC(=O)NC(C)(C)C)cc(F)c1F [Compound 354]
- IC50 [2]: 94 nM
